Data from patent US20230265151A1, “GIP/GLP1 CO-AGONIST COMPOUNDS” (priority 2020, published 2023).
Like-named read-outs stand apart in the source and are kept apart here. *1 amine or outer side, *2 acyl side, *3 side chain or, on linkers, in order; H or OH if unused. Where a SMILES comes first, the peptide text is derived from it. Side-chain parts run from the residue outwards. [ ]: non-standard residue; d: D form. The star is where a group is joined. αMePhe(2-F) = C[C@](N)(Cc1ccccc1F)C(=O)O; γGlu = O=C(O)[C@H](CCC(=O)[*:2])N[*:1]; C14 diacid = O=C(O)CCCCCCCCCCCCC(=O)*; αMeY = C[C@](N)(Cc1ccc(O)cc1)C(=O)O; αMeL = CC(C)C[C@](C)(N)C(=O)O; Orn = NCCC[C@H](N)C(=O)O; AEEA = NCCOCCOCC(=O)O; Aib = CC(C)(N)C(=O)O

Key:
Type in all cases: cell-based
hGIPR = target: T1, hGIPR (Homo sapiens, UniProt P48546); test: Functional cAMP formation (HTRF) in HEK-293 clonal cells expressing hGIPR, 0.1% bovine casein, without or with 1.0% human serum albumin; conditions: for EC50: cAMP, 0.1% bovine casein (no human serum albumin), geometric mean
T1 construct: expressed in transfected cells
T1 sequence (P48546 22-466): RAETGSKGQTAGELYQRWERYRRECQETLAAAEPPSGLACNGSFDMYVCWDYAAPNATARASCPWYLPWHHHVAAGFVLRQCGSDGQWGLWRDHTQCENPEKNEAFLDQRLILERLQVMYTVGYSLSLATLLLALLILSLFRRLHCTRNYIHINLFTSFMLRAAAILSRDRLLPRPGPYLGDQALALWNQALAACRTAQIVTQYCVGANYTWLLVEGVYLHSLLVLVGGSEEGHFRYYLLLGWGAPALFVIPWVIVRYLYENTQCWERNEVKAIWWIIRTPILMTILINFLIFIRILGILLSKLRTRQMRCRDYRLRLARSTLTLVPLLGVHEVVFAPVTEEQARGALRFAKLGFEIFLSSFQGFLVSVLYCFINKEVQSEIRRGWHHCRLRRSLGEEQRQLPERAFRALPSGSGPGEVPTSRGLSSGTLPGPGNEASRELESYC
Procedure, shortened: (§1)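 Readings of the HTRF 665/620 nm ratio, which falls as cAMP rises, were converted to nM cAMP using a standard curve after 30 min peptide exposure at 37° C.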

hGCGR = target: T2, hGCGR (Homo sapiens, UniProt P47871); test: Functional cAMP formation (HTRF) in HEK-293 clonal cells expressing hGCGR, 0.1% bovine casein, without or with 1.0% human serum albumin; conditions: geometric mean
T2 construct: expressed in transfected cells
Procedure, shortened: as §1

hGLP-1R = hGLP-1R (Homo sapiens, UniProt P43220); test: Functional cAMP formation (HTRF) in HEK-293 clonal cells expressing hGLP-1R, 0.1% bovine casein, without or with 1.0% human serum albumin; parameters: expressed in transfected cells; conditions: for Emax: read-out: hGLP-1R Emax, % ± SEM; for EC50: cAMP, 0.1% bovine casein (no human serum albumin), geometric mean
Procedure, shortened: as §1

[1] = HEK293, 0.1% bovine casein and 1.0% human serum albumin, 37° C., percent of maximal response to GIP(1-42)NH2, read-out: hGIPR Emax, % ± SEM
[2] = incubated at 37° C., read-out: hGIPR EC50, nM (SEM, n)
[3] = 0.1% bovine casein and 1.0% human serum albumin, 37° C., read-out: hGCGR EC50, nM (SEM, n)
[4] = cAMP, incubated at 37° C., 0.1% bovine casein (no human serum albumin), read-out: hGCGR EC50, nM (SEM, n)
[5] = HEK293, percent of maximal response to GLP-1(7-36)NH2, 37° C., 0.1% bovine casein, arithmetic mean

T2 sequence (P47871 26-477): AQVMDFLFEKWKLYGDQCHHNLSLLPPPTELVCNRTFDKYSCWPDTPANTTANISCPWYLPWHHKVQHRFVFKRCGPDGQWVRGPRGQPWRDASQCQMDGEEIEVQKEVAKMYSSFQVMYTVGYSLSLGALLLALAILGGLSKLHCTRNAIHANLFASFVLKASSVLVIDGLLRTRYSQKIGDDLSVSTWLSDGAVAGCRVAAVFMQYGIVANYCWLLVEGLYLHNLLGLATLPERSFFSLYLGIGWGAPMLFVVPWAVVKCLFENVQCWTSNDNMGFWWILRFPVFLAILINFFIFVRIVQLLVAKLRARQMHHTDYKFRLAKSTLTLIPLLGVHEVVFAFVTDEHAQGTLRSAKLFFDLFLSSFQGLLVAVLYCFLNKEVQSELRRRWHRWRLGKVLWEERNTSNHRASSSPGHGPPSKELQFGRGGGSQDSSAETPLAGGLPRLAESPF
hGLP-1R, sequence (P43220 24-463): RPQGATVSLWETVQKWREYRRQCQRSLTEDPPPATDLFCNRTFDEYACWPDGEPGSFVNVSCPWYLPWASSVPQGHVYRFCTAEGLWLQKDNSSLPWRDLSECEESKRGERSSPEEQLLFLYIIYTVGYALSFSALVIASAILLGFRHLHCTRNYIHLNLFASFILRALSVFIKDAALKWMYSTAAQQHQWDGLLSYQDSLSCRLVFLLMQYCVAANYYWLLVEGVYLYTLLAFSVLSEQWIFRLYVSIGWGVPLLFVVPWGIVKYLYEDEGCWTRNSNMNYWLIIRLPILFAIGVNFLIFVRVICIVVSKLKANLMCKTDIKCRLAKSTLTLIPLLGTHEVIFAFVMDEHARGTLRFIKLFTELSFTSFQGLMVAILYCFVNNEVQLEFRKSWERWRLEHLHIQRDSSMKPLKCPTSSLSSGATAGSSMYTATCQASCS

SMILES | Emax (hGIPR; [1]) [%] | EC50 (hGIPR; [2]) [nM] | EC50 (hGCGR; [3]) [nM] | EC50 (hGCGR; [4]) [nM] | Emax (hGLP-1R; [5]) [%] | also measured
CC[C@H](C)[C@H](NC(=O)[C@H](CC(C)C)NC(=O)[C@](C)(Cc1ccc(O)cc1)NC(=O)[C@@H](CCC(=O)O)NC(=O)[C@@H](NC(=O)[C@H](Cc1ccccc1)NC(=O)[C@H](CCC(=O)O)NC(=O)C(C)(C)NC(=O)[C@H](CCC(N)=O)NC(=O)[C@H](C)NC(=O)[C@H](CCCCNC(=O)COCCOCCNC(=O)COCCOCCNC(=O)CC[C@H](NC(=O)CCCCCCCCCCCCC(=O)O)C(=O)O)NC(=O)[C@H](CCCN)NC(=O)[C@H](CC(=O)O)NC(=O)[C@H](CC(C)C)NC(=O)[C@](C)(CC(C)C)NC(=O)[C@@H](NC(=O)[C@H](CO)NC(=O)[C@](C)(CC(C)C)NC(=O)[C@H](CC(=O)O)NC(=O)[C@H](CO)NC(=O)[C@@H](NC(=O)[C@](C)(Cc1ccccc1F)NC(=O)[C@@H](NC(=O)CNC(=O)[C@H](CCC(=O)O)NC(=O)C(C)(C)NC(=O)[C@@H](N)Cc1ccc(O)cc1)[C@@H](C)O)[C@@H](C)O)[C@@H](C)CC)[C@@H](C)CC)C(=O)N[C@@H](CCC(=O)O)C(=O)NCC(=O)NCC(=O)N[C@@H](CCCCNC(=O)COCCOCCNC(=O)COCCOCCNC(=O)CC[C@H](NC(=O)CCCCCCCCCCCCC(=O)O)C(=O)O)C(=O)N[C@@H](CO)C(=O)N[C@@H](CO)C(=O)NCC(=O)N[C@@H](C)C(=O)N1CCC[C@H]1C(=O)N1CCC[C@H]1C(=O)N1CCC[C@H]1C(=O)N[C@@H](CO)C(N)=O [Example 51] | 90.7 | 0.11 | > 9950 | > 9950 | 85.7 ± 9.8 | Emax (hGLP-1R; HEK293, 0.1% bovine casein and 1.0% human serum albumin, 37° C., percent of maximal response to GLP-1(7-36)NH2): 92.9%
CC[C@H](C)[C@H](NC(=O)[C@H](CCCN)NC(=O)[C@H](CC(=O)O)NC(=O)[C@H](CC(C)C)NC(=O)[C@](C)(CC(C)C)NC(=O)[C@@H](NC(=O)[C@H](CO)NC(=O)[C@H](CCCCNC(=O)COCCOCCNC(=O)COCCOCCNC(=O)CC[C@H](NC(=O)CCCCCCCCCCCCC(=O)O)C(=O)O)NC(=O)[C@H](CC(=O)O)NC(=O)[C@H](CO)NC(=O)[C@@H](NC(=O)[C@](C)(Cc1ccccc1F)NC(=O)[C@@H](NC(=O)CNC(=O)[C@H](CCC(=O)O)NC(=O)C(C)(C)NC(=O)[C@@H](N)Cc1ccc(O)cc1)[C@@H](C)O)[C@@H](C)O)[C@@H](C)CC)C(=O)N[C@@H](C)C(=O)N[C@@H](CCC(N)=O)C(=O)NC(C)(C)C(=O)N[C@@H](CCC(=O)O)C(=O)N[C@@H](Cc1ccccc1)C(=O)N[C@H](C(=O)N[C@H](CCC(=O)O)C(=O)N[C@@](C)(Cc1ccc(O)cc1)C(=O)N[C@@H](CC(C)C)C(=O)N[C@H](C(=O)N[C@@H](CCCCNC(=O)COCCOCCNC(=O)COCCOCCNC(=O)CC[C@H](NC(=O)CCCCCCCCCCCCC(=O)O)C(=O)O)C(=O)NCC(=O)NCC(=O)N1CCC[C@H]1C(=O)N[C@@H](CO)C(=O)N[C@@H](CO)C(=O)NCC(=O)N[C@@H](C)C(=O)N1CCC[C@H]1C(=O)N1CCC[C@H]1C(=O)N1CCC[C@H]1C(=O)N[C@@H](CO)C(N)=O)[C@@H](C)CC)[C@@H](C)CC [Example 107] (H-Y[Aib]EGT[αMePhe(2-F)]TSDK([AEEA-AEEA-γGlu-C14 diacid])SI[αMeL]LD[Orn]IAQ[Aib]EFI[dE][αMeY]LIK([AEEA-AEEA-γGlu-C14 diacid])GGPSSGAPPPS-NH2) |  | 0.0473 |  | > 9950 | 93.4 | Emax (hGIPR; HEK293, percent of maximal response to GIP(1-42)NH2, 37° C., 0.1% bovine casein, arithmetic mean, read-out: hGIPR Emax, % ± SEM): 94.3%
CC[C@H](C)[C@H](NC(=O)[C@H](CC(C)C)NC(=O)C(C)(Cc1ccc(O)cc1)NC(=O)[C@H](CCCCNC(=O)[C@@H](N)CCCCNC(=O)CC[C@H](NC(=O)CCCCCCCCCCCCC(=O)O)C(=O)O)NC(=O)[C@@H](NC(=O)[C@H](Cc1ccccc1)NC(=O)[C@H](CCC(=O)O)NC(=O)C(C)(C)NC(=O)[C@H](CCC(N)=O)NC(=O)[C@H](C)NC(=O)[C@H](CCCCNC(=O)[C@@H](N)CCCCNC(=O)CC[C@H](NC(=O)CCCCCCCCCCCCC(=O)O)C(=O)O)NC(=O)[C@H](CCCN)NC(=O)[C@H](CC(=O)O)NC(=O)[C@H](CC(C)C)NC(=O)C(C)(CC(C)C)NC(=O)[C@@H](NC(=O)[C@H](CO)NC(=O)[C@H](Cc1ccncc1)NC(=O)[C@H](CC(=O)O)NC(=O)[C@H](CO)NC(=O)[C@@H](NC(=O)C(C)(Cc1ccccc1F)NC(=O)[C@@H](NC(=O)CNC(=O)[C@H](CCC(=O)O)NC(=O)C(C)(C)NC(=O)[C@@H](N)Cc1ccc(O)cc1)[C@@H](C)O)[C@@H](C)O)[C@@H](C)CC)[C@@H](C)CC)C(=O)N[C@@H](CCC(=O)O)C(=O)NCC(=O)NCC(=O)N1CCC[C@H]1C(=O)N[C@@H](CO)C(=O)N[C@@H](CO)C(=O)NCC(=O)N[C@@H](C)C(=O)N1CCC[C@H]1C(=O)N1CCC[C@H]1C(=O)N1CCC[C@H]1C(=O)N[C@@H](CO)C(N)=O (stereo partly shown) [Example 161] |  |  |  |  |  | Emax (hGIPR; HEK293, read-out: hGIPR Emax, % ± SEM, percent of maximal response to GIP(1-42)NH2, 37° C., 0.1% bovine casein, arithmetic mean): 94.6 ± 1.21%; EC50 (hGIPR; hGIPR EC50, nM (SEM, n), incubated at 37° C.): 0.0207 nM; EC50 (hGCGR; hGCGR EC50, nM (SEM, n), cAMP, incubated at 37° C., 0.1% bovine casein (no human serum albumin)): > 9950 nM; EC50 (hGLP-1R; hGLP-1R EC50, nM (SEM, n), incubated at 37° C.): 0.203 nM
CC[C@H](C)[C@H](NC(=O)[C@H](CC(C)C)NC(=O)[C@](C)(Cc1ccc(O)cc1)NC(=O)[C@@H](CCC(=O)O)NC(=O)[C@@H](NC(=O)[C@H](Cc1ccccc1)NC(=O)[C@H](CCCCNC(=O)COCCOCCNC(=O)COCCOCCNC(=O)CC[C@H](NC(=O)CCCCCCCCCCCCC(=O)O)C(=O)O)NC(=O)C(C)(C)NC(=O)[C@H](CCC(N)=O)NC(=O)[C@H](C)NC(=O)[C@H](CCCCNC(=O)COCCOCCNC(=O)COCCOCCNC(=O)CC[C@H](NC(=O)CCCCCCCCCCCCC(=O)O)C(=O)O)NC(=O)[C@H](CCCN)NC(=O)[C@H](CC(=O)O)NC(=O)[C@H](CC(C)C)NC(=O)[C@](C)(CC(C)C)NC(=O)[C@@H](NC(=O)C(C)(C)NC(=O)[C@@H](NC(=O)[C@H](CC(=O)O)NC(=O)[C@H](CO)NC(=O)[C@@H](NC(=O)[C@](C)(Cc1ccccc1F)NC(=O)[C@@H](NC(=O)CNC(=O)[C@H](CCC(=O)O)NC(=O)C(C)(C)NC(=O)[C@@H](N)Cc1ccc(O)cc1)[C@@H](C)O)[C@@H](C)O)C(C)C)[C@@H](C)CC)[C@@H](C)CC)C(=O)N[C@@H](CCC(=O)O)C(=O)NCC(=O)NCC(=O)N1CCC[C@H]1C(=O)N[C@@H](CO)C(=O)N[C@@H](CO)C(=O)NCC(=O)N[C@@H](C)C(=O)N1CCC[C@H]1C(=O)N1CCC[C@H]1C(=O)N1CCC[C@H]1C(=O)N[C@@H](CO)C(N)=O [Example 318] | 91.4 |  | > 9950 |  |  | EC50 (hGIPR; 37° C., read-out: hGIPR EC50, nM (SEM, n)): 0.0402 nM; EC50 (hGCGR; cAMP, 37° C., 0.1% bovine casein (no human serum albumin), read-out: hGCGR EC50, nM (SEM, n)): > 9950 nM; EC50 (hGLP-1R; 37° C., read-out: hGLP-1R EC50, nM (SEM, n)): 0.219 nM
